Assays:
Experiment in all cases: combination Emax (second highest fraction inhibited in the dose matrix, 72 h); higher = more inhibition; extreme values may be limits of the assay
[1] = system: MM1S (Plasma Cell Myeloma)
In short: (§1)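 Bliss excess equals the observed combination effect minus the expected value EA + EB − EA·EB, where EA and EB are the effects of each agent alone. Combination Emax is the second-highest inhibition within the matrix. Inhibition was scaled from CellTiter-Glo 2.0 luminescence, with 0 set by vehicle wells and 1 by blank wells, after 72 hours of two-drug dosing of cells plated in 1536-well plates.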

[2] = system: DBTRG-05MG (Glioblastoma)
In short: as §1

[3] = system: NAMALWA (Burkitt's Lymphoma)
In short: as §1

[4] = system: BHT-101 (Thyroid Gland Carcinoma)
In short: as §1

NB1 (Neuroblastoma) = system: NB1 (Neuroblastoma)
In short: as §1

UACC-257 (Melanoma) = system: UACC-257 (Melanoma)
In short: as §1

[5] = system: T84 (Colorectal Carcinoma)
In short: as §1

[6] = system: KP-4 (Pancreatic Carcinoma)
In short: as §1

[7] = system: MOLT-13 (T-Lymphoblastic Leukemia)
In short: as §1

WM35 (Melanoma) = system: WM35 (Melanoma)
In short: as §1

[8] = system: SNU-423 (Hepatocellular Carcinoma)
In short: as §1

[9] = system: OVCAR-3 (Ovarian Carcinoma)
In short: as §1

T47D (Breast Carcinoma) = system: T47D (Breast Carcinoma)
In short: as §1

[10] = system: PL4 (Pancreatic Carcinoma)
In short: as §1

Row | Compound | combination Emax [1] | combination Emax [2] | combination Emax [3] | combination Emax [4] | combination Emax (NB1 (Neuroblastoma)) | combination Emax (UACC-257 (Melanoma)) | combination Emax [5] | combination Emax [6] | combination Emax [7] | combination Emax (WM35 (Melanoma)) | combination Emax [8] | combination Emax [9] | combination Emax (T47D (Breast Carcinoma)) | combination Emax [10]
1 | CN(CCO)CC[C@H](CSc1ccccc1)Nc1ccc(S(=O)(=O)NC(=O)c2ccc(N3CCC([C@@H](O)c4ccccc4-c4ccc(Cl)cc4)CC3)cc2)cc1S(=O)(=O)C(F)(F)F [AZD4320] + C[C@@H]1COCCN1C2=NC(=NC(=C2)C3(CC3)[S@](=N)(=O)C)C4=C5C=CNC5=NC=C4 [AZD6738] (first compound max 1 µM, 7x7, partner max 10 µM) | 1 | 0.834 | 0.928 | 0.877 | 0.936 | 0.186 | 0.719 | 0.487 | 1 | 0.367 | 0.624 | 0.555 | 0.324 | 0.878
2 | CN(CCO)CC[C@H](CSc1ccccc1)Nc1ccc(S(=O)(=O)NC(=O)c2ccc(N3CCC([C@@H](O)c4ccccc4-c4ccc(Cl)cc4)CC3)cc2)cc1S(=O)(=O)C(F)(F)F [AZD4320] + C[C@@H](Nc1cc(F)cc(F)c1)c1cc(C(=O)N(C)C)cc2c(=O)cc(N3CCOCC3)oc12 [AZD8186] (first compound max 1 µM, 7x7, partner max 3 µM) | 0.988 | 0.935 | 0.573 | 0.616 | 0.651 | 0.269 | 0.249 | 0.273 | 0.996 | 0.561 | 0.547 | 0.512 | 0.439 | 0.694
3 | CN(CCO)CC[C@H](CSc1ccccc1)Nc1ccc(S(=O)(=O)NC(=O)c2ccc(N3CCC([C@@H](O)c4ccccc4-c4ccc(Cl)cc4)CC3)cc2)cc1S(=O)(=O)C(F)(F)F [AZD4320] + Cc1cc2ncnn2cc1Nc1ncc2c(n1)n(C1CCOCC1)c(=O)n2C [AZD7648] (first compound max 1 µM, 7x7, partner max 10 µM) | 1 | 0.827 | 0.323 | 0.363 | 0.191 | 0.122 | 0.0764 | 0.136 | 0.951 | 0.16 | 0.39 | 0.156 | 0.312 | 0.421
4 | CN(CCO)CC[C@H](CSc1ccccc1)Nc1ccc(S(=O)(=O)NC(=O)c2ccc(N3CCC([C@@H](O)c4ccccc4-c4ccc(Cl)cc4)CC3)cc2)cc1S(=O)(=O)C(F)(F)F [AZD4320] + Cn1cnc2c(F)c(Nc3ccc(Br)cc3Cl)c(C(=O)NOCCO)cc21 [Selumetinib] (first compound max 1 µM, 7x7, partner max 3 µM) | 0.983 | 0.702 | 0.512 | 0.852 | 0.448 | 0.838 | 0.319 | 0.254 | 1 | 0.926 | 0.414 | 0.563 | 0.314 | 0.751
5 | Cc1c2c(nn1C)CSCc1cc(n(C)n1)CSc1cc(c3ccccc3c1)OCCCc1c(C(=O)O)n(C)c3c-2c(Cl)ccc13 [AZD5991] + C1CN(CCC1(C(=O)N[C@@H](CCO)C2=CC=C(C=C2)Cl)N)C3=NC=NC4=C3C=CN4 [Capivasertib] (first compound max 1 µM, 7x7, partner max 3 µM) | 1 | 0.199 | 1 | 0.418 | 0.507 | 0.252 | 0.0983 | 0.143 | 1 | 0.207 | 0.341 | 0.185 | 0.579 | 0.339
6 | Cc1c2c(nn1C)CSCc1cc(n(C)n1)CSc1cc(c3ccccc3c1)OCCCc1c(C(=O)O)n(C)c3c-2c(Cl)ccc13 [AZD5991] + C=CCn1c(=O)c2cnc(Nc3ccc(N4CCN(C)CC4)cc3)nc2n1-c1cccc(C(C)(C)O)n1 [AZD1775] (first compound max 1 µM, partner max 1 µM) | 0.992 | 0.262 | 0.996 | 0.732 | 0.936 | 0.294 | 0.631 | 0.659 | 1 | 0.371 | 0.591 | 0.835 | 0.574 | 0.737
7 | Cc1c2c(nn1C)CSCc1cc(n(C)n1)CSc1cc(c3ccccc3c1)OCCCc1c(C(=O)O)n(C)c3c-2c(Cl)ccc13 [AZD5991] + CC1(C)CCC(CN2CCN(c3ccc(C(=O)NS(=O)(=O)c4ccc(NCC5CCOCC5)c([N+](=O)[O-])c4)c(Oc4cnc5[nH]ccc5c4)c3)CC2)=C(c2ccc(Cl)cc2)C1 [Venetoclax] (first compound max 1 µM, 7x7, partner max 1 µM) | 0.99 | 0.158 | 0.994 | 0.587 | 0.535 | 0.308 | 0.142 | 0.157 | 1 | 0.243 | 0.144 | 0.171 | 0.434 | 0.234
8 | Cc1c2c(nn1C)CSCc1cc(n(C)n1)CSc1cc(c3ccccc3c1)OCCCc1c(C(=O)O)n(C)c3c-2c(Cl)ccc13 [AZD5991] + CCN(CCO)CCCOc1ccc2c(Nc3cc(CC(=O)Nc4cccc(F)c4)[nH]n3)ncnc2c1 [AZD2811] (first compound max 1 µM, 7x7, partner max 1 µM) | 0.982 | 0.225 | 0.98 | 0.267 | 0.694 | 0.322 | 0.177 | 0.667 | 1 | 0.243 | 0.335 | 0.378 | 0.708 | 0.474
9 | Cc1c2c(nn1C)CSCc1cc(n(C)n1)CSc1cc(c3ccccc3c1)OCCCc1c(C(=O)O)n(C)c3c-2c(Cl)ccc13 [AZD5991] + CN(C)CCCOc1ccc(-c2ccc3ncc4c(c3c2)n(C2CCOCC2)c(=O)n4C)cn1 [AZD0156] (first compound max 1 µM, 7x7, partner max 1 µM) | 0.992 | 0.221 | 0.996 | 0.659 | 0.278 | 0.277 | 0.192 | 0.259 | 1 | 0.231 | 0.297 | 0.427 | 0.749 | 0.357
10 | Cc1c2c(nn1C)CSCc1cc(n(C)n1)CSc1cc(c3ccccc3c1)OCCCc1c(C(=O)O)n(C)c3c-2c(Cl)ccc13 [AZD5991] + C[C@@H]1COCCN1C2=NC(=NC(=C2)C3(CC3)[S@](=N)(=O)C)C4=C5C=CNC5=NC=C4 [AZD6738] (first compound max 1 µM, 7x7, partner max 10 µM) | 1 | 0.232 | 0.997 | 0.859 | 0.931 | 0.252 | 0.669 | 0.501 | 1 | 0.343 | 0.471 | 0.567 | 0.44 | 0.761
11 | Cc1c2c(nn1C)CSCc1cc(n(C)n1)CSc1cc(c3ccccc3c1)OCCCc1c(C(=O)O)n(C)c3c-2c(Cl)ccc13 [AZD5991] + C[C@@H](Nc1cc(F)cc(F)c1)c1cc(C(=O)N(C)C)cc2c(=O)cc(N3CCOCC3)oc12 [AZD8186] (first compound max 1 µM, 7x7, partner max 3 µM) | 0.958 | 0.266 | 0.986 | 0.659 | 0.26 | 0.28 | 0.139 | 0.206 | 1 | 0.307 | 0.431 | 0.439 | 0.504 | 0.421
12 | Cc1c2c(nn1C)CSCc1cc(n(C)n1)CSc1cc(c3ccccc3c1)OCCCc1c(C(=O)O)n(C)c3c-2c(Cl)ccc13 [AZD5991] + Cc1cc2ncnn2cc1Nc1ncc2c(n1)n(C1CCOCC1)c(=O)n2C [AZD7648] (first compound max 1 µM, 7x7, partner max 10 µM) | 1 | 0.214 | 1 | 0.599 | 0.211 | 0.244 | 0.0921 | 0.263 | 1 | 0.207 | 0.362 | 0.272 | 0.475 | 0.386
13 | Cc1c2c(nn1C)CSCc1cc(n(C)n1)CSc1cc(c3ccccc3c1)OCCCc1c(C(=O)O)n(C)c3c-2c(Cl)ccc13 [AZD5991] + Cn1cnc2c(F)c(Nc3ccc(Br)cc3Cl)c(C(=O)NOCCO)cc21 [Selumetinib] (first compound max 1 µM, 7x7, partner max 3 µM) | 0.998 | 0.344 | 0.999 | 0.913 | 0.238 | 0.817 | 0.406 | 0.226 | 1 | 0.929 | 0.27 | 0.218 | 0.364 | 0.573
14 | C[C@@H]1COCCN1c1cc(C2([S@](C)(=N)=O)CC2)nc(-c2ccnc3[nH]ccc23)n1 [AZD6738] + O=C(c1cc(Cc2n[nH]c(=O)c3ccccc23)ccc1F)N1CCN(C(=O)C2CC2)CC1 [Olaparib] (first compound max 10 µM, 7x7, partner max 10 µM) | 0.642 | 0.239 | 0.938 | 0.663 | 0.772 | 0.142 | 0.672 | 0.706 | 0.999 | 0.547 | 0.576 | 0.555 | 0.301 | 0.672
15 | Cc1cc2ncnn2cc1Nc1ncc2c(n1)n(C1CCOCC1)c(=O)n2C [AZD7648] + C=CCn1c(=O)c2cnc(Nc3ccc(N4CCN(C)CC4)cc3)nc2n1-c1cccc(C(C)(C)O)n1 [AZD1775] (first compound max 10 µM, partner max 1 µM) | 0.811 | 0.343 | 0.96 | 0.471 | 0.847 | 0.226 | 0.45 | 0.59 | 0.953 | 0.294 | 0.497 | 0.411 | 0.468 | 0.379
16 | Cc1cc2ncnn2cc1Nc1ncc2c(n1)n(C1CCOCC1)c(=O)n2C [AZD7648] + CCN(CCO)CCCOc1ccc2c(Nc3cc(CC(=O)Nc4cccc(F)c4)[nH]n3)ncnc2c1 [AZD2811] (first compound max 10 µM, 7x7, partner max 1 µM) | 0.346 | 0.228 | 0.432 | 0.25 | 0.629 | 0.278 | 0.287 | 0.4 | 0.973 | 0.155 | 0.341 | 0.116 | 0.456 | 0.142
